Measurements taken from ChEMBL document CHEMBL1201862, “PubChem BioAssay data set” (2004).
The source made the active and inactive calls.

Tests used:
[1] = molecular target: Disintegrin and metalloproteinase domain-containing protein 17 (Homo sapiens, UniProt P78536); assay: exosite inhibitors of ADAM17, dose response, biochemical (AID 743260)
[2] = inhibition of ADAM10 peptide cleavage – biochemical, FRET peptide substrate, recombinant human ADAM10, selectivity assay for ADAM17 exosite inhibitor project, dose response (AID 743259);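 note: ADAM10 enzyme cleaving a FRET peptide substrate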
[3] = TNFa-induced NF-kB reporter signal decrease – HEK293 LMP1 reporter cells, dry powder, set 2, selectivity assay for EBV LMP1 NF-kB inhibitor project, dose response (AID 624369); format: functional
[4] = LMP1-induced NF-kB luciferase signal inhibition – cell-based, EBV LMP1, dry powder, set 2, dose response (AID 624361); format: functional
[5] = molecular target: T1, DNA repair protein RAD52 homolog (Homo sapiens, UniProt P43351); format: functional, biochemical
T1 sequence (P43351 whole entry): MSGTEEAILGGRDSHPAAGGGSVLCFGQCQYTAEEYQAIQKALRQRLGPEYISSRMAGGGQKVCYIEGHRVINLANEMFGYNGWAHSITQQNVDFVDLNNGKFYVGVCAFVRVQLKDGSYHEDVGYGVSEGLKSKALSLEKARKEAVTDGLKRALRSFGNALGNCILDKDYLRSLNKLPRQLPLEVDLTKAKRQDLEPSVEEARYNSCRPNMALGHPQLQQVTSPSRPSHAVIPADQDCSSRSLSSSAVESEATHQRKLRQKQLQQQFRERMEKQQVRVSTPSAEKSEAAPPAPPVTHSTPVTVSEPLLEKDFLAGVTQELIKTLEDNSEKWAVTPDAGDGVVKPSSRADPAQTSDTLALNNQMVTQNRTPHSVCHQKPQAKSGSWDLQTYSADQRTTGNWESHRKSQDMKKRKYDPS

[6] = viability loss in HepG2 hepatoma cells – cell-based, ATP luminescence, cherry-pick, activator set 2, cytotoxicity control, dose response (AID 1053143); format: functional
[7] = Counterscreen for antagonists of the human trace amine associated receptor 1 (hTAAR1): Fluorescence-based cell-based high throughput dose response assay to identify nonselective Ga16 antagonists.; format: functional
[8] = molecular target: T2, Trace amine-associated receptor 1 (Homo sapiens, UniProt Q96RJ0); assay: Counterscreen for antagonists of the human trace amine associated receptor 1 (hTAAR1): Fluorescence-based cell-based high throughput dose response assay to identify TAAR1 Agonists.; format: functional
T2 sequence (Q96RJ0 whole entry): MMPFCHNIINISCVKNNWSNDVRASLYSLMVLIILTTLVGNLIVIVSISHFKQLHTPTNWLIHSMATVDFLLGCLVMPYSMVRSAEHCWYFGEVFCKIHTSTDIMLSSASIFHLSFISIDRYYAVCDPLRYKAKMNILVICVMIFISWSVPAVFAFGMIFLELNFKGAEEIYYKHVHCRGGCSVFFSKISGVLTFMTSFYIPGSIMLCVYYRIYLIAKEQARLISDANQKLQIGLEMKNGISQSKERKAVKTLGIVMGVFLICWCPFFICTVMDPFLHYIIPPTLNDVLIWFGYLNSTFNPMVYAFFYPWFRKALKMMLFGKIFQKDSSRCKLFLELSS

[9] = Counterscreen for […] of the human trace amine associated receptor 1 (TAAR1): Fluorescence-based cell-based high throughput dose response assay to identify nonselective Ga16 agonists.; format: functional
[10] = molecular target: T2, Trace amine-associated receptor 1; assay: Fluorescence-based cell-based high throughput dose response assay to identify antagonists of the human trace amine associated receptor 1 (TAAR1).; format: functional
[11] = molecular target: T3, Tyrosine-protein phosphatase non-receptor type 22 (Homo sapiens, UniProt Q9Y2R2); assay: lymphoid phosphatase LYP inhibitors – biochemical, selectivity assay for STEP inhibitor project, dose response (AID 624241); format: functional
T3 sequence (Q9Y2R2 whole entry): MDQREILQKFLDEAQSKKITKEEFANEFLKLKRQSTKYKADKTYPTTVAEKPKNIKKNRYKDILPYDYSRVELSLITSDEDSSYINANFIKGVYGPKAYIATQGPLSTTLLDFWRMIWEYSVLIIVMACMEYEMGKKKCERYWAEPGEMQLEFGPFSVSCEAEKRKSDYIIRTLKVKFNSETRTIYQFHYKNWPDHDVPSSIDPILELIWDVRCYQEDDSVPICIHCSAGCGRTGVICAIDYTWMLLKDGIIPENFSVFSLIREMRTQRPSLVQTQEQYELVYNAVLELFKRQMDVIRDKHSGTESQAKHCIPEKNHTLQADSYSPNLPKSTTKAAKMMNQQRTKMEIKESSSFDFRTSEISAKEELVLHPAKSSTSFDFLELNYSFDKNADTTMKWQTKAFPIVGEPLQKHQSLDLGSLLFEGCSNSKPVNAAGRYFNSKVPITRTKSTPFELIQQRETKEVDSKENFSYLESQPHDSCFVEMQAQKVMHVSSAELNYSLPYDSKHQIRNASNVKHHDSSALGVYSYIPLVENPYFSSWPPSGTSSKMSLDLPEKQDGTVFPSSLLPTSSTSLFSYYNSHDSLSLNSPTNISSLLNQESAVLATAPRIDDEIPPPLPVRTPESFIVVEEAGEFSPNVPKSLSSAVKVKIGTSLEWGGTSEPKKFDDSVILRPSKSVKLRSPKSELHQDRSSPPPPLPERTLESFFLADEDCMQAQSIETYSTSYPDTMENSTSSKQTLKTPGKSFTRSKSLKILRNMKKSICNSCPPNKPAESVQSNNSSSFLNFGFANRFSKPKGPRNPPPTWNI

[12] = molecular target: T4, Low molecular weight phosphotyrosine protein phosphatase (Homo sapiens, UniProt P24666); format: functional; conditions: read-out: IC50_Mean
T4 sequence (P24666 whole entry): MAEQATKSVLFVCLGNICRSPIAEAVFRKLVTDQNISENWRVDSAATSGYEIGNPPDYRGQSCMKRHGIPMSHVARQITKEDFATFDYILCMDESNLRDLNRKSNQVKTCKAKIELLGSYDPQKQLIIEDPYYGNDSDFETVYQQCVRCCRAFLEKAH

[13] = molecular target: Tyrosine-protein phosphatase non-receptor type 11 (Homo sapiens, UniProt Q06124); assay: PTPN11 enzyme inhibitors – biochemical, selectivity assay for STEP inhibitor project, dose response (AID 602367); format: functional; conditions: read-out: IC50_Mean
[14] = molecular target: Tyrosine-protein phosphatase non-receptor type 5 (Homo sapiens, UniProt P54829); assay: PTPN5 enzyme inhibition – biochemical, fluorescence intensity, uHTS hits, confirmation (AID 602372); format: functional; conditions: read-out: IC50_Mean
[15] = molecular target: T4, Low molecular weight phosphotyrosine protein phosphatase; format: functional; conditions: read-out: IC50_Mean; remark: listed apart in the source
[16] = molecular target: Dual specificity protein phosphatase 3 (Homo sapiens, UniProt P51452); assay: VHR phosphatase inhibition, dose response, selectivity assay for STEP inhibitor project, biochemical (AID 602374); format: functional; conditions: read-out: IC50_Mean
[17] = molecular target: T5, High affinity choline transporter 1 (Homo sapiens, UniProt Q9GZV3); assay: inhibition of SLC5A7-mediated choline transport – cell-based, HEK-293 hCHT, [3H]-choline uptake, dose response (AID 652177); format: functional
T5 sequence (Q9GZV3 whole entry): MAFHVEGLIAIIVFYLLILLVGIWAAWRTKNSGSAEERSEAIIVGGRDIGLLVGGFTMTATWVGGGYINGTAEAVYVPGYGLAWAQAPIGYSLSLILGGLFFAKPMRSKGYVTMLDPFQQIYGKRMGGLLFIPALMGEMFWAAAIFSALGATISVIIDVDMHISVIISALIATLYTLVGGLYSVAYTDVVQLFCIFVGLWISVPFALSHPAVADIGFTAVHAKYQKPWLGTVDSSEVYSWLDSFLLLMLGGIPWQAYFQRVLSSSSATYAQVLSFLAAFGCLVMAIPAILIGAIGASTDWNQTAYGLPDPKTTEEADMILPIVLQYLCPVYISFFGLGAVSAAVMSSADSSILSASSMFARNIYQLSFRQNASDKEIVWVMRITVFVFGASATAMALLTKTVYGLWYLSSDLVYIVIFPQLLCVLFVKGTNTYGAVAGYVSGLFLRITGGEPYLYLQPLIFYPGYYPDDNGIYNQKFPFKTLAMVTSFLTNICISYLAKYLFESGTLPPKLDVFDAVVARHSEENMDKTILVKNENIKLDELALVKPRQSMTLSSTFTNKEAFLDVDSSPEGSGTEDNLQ

Sequence of Dual specificity protein phosphatase 3 (P51452 whole entry): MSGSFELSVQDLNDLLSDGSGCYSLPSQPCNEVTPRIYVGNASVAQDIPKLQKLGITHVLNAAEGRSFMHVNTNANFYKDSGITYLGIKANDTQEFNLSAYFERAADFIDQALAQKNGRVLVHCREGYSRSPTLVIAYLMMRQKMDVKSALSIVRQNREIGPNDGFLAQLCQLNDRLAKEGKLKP
Sequence of Tyrosine-protein phosphatase non-receptor type 5 (P54829 whole entry): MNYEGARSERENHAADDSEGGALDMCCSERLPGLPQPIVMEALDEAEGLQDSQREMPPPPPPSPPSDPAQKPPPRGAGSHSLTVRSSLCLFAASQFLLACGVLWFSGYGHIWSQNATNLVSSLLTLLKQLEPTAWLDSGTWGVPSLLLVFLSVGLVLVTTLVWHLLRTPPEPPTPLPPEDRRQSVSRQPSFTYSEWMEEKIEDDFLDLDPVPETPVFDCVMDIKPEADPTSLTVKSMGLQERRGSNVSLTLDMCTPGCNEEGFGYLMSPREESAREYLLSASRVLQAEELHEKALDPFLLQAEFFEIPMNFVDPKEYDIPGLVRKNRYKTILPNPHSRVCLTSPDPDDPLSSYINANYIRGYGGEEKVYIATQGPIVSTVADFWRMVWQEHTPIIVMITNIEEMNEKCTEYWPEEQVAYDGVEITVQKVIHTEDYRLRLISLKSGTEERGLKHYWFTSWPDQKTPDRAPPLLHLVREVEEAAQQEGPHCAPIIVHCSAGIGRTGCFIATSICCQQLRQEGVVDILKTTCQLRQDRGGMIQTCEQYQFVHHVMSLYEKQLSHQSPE
Sequence of Tyrosine-protein phosphatase non-receptor type 11 (Q06124 whole entry): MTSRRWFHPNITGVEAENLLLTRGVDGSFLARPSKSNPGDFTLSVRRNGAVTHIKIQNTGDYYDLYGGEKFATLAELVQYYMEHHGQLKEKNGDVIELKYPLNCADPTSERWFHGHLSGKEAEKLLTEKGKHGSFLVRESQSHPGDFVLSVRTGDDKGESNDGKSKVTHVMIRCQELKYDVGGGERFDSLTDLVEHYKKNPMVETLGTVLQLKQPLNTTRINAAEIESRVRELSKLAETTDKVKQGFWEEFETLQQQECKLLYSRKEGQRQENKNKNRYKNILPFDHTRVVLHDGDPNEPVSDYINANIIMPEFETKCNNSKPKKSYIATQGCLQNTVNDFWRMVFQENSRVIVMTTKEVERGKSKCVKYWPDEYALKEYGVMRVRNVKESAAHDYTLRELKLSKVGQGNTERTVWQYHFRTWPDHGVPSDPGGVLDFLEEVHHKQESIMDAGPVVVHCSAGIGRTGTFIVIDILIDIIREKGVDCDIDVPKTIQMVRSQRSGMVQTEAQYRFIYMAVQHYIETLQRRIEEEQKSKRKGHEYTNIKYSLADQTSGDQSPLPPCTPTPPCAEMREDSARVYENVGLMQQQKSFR
Sequence of Disintegrin and metalloproteinase domain-containing protein 17 (P78536 whole entry, the tested form may be a part): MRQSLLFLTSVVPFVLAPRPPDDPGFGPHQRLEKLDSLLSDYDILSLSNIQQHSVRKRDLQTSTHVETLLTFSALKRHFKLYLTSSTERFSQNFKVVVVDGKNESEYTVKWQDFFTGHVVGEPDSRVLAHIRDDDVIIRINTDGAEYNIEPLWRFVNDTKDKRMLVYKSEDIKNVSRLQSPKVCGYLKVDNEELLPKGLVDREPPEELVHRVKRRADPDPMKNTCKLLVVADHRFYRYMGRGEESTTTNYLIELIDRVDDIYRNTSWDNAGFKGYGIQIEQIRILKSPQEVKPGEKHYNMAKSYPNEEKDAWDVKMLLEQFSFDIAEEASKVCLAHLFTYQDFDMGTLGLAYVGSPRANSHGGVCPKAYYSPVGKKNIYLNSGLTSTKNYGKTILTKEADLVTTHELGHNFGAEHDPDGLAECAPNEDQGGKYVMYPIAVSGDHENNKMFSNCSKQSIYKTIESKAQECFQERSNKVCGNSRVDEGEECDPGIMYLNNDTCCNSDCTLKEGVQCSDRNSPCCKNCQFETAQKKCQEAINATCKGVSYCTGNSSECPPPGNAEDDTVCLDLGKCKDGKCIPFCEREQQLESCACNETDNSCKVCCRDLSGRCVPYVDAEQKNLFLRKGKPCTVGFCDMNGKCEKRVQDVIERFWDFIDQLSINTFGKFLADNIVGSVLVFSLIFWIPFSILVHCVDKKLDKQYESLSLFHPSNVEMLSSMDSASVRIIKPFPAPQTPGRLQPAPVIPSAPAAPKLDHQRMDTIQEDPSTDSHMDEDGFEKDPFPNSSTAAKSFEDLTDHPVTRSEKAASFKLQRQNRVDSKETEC

## CCSc1nsc(NC(=O)Nc2cccc(OC)c2)n1
[1]
  IC50: > 69.5 µM (inactive)
[2]
  IC50: > 69.5 µM (inactive)

## O=C(C[C@H]1CC[C@@H]2[C@H](COC[C@H](O)CN2Cc2ccc(Oc3ccccc3)cc2)O1)N1CCc2ccccc2C1
[3]
  AbsAC35: 121.3 µM
[4]
  AbsAC35: 66.11 µM

## CCN1CCN(c2cc(C)c3cc(NC(=O)c4cc(OC)cc(OC)c4)ccc3n2)CC1
[5]
  AC50: 11.2 µM (active)
[6]
  AC50: 17.1 µM (active)

## CN1CCN(c2ncnc3c2c(-c2ccccc2)cn3-c2ccc(F)cc2)CC1
[7]
  IC50: > 29.9 µM (inactive)
[8]
  EC50: 10 µM (inactive)
[9]
  EC50: > 29.9 µM (inactive)
[10]
  IC50: 3.17 µM (active)

## C/C(=N\NC(=O)c1ccccc1O)c1ccc(NC(=O)Cc2ccccc2)cc1
[11]
  IC50: > 100 µM (inactive)
[12]
  IC50: 14.2 µM (active)
[13]
  IC50: 2.01 µM (active)
[14]
  IC50: 12.8 µM (active)
[15]
  IC50: 15.9 µM (active)
[16]
  IC50: 2.38 µM (active)

## COc1ccc(C(=O)NCc2nc(C)cs2)cc1OC1CCN(C(C)C)CC1
[17]
  IC50: 77.3 µM (inactive)
